Measurements: patent US9758529B2, “Fused dihydro-4H-pyrazolo[5,1-C][1,4]oxazinyl compounds and analogs for treating CNS disorders” (Sunovion Pharmaceuticals Inc., priority 2015, dated 2017)

What follows are molecules tested on mice (assay: Neuropharmacological Assay (SmartCube)). Conditions: i.p. 15 min before behavioral test; 3 doses, most efficacious dose(s) presented.
Assay type: in vivo

| SMILES | AD: ADHD (probability of class match) | AG: analgesic (probability of class match) | AX: anxiolytic (probability of class match) | CE: cognitive enhancer (probability of class match) | DP: anti-depressant (probability of class match) | HA: hallucinogen (probability of class match) | MS: mood stabilizer (probability of class match) | PS: anti-psychotic (probability of class match) | SD: sedative hypnotic (probability of class match) | UN: uncharacterized CNS activity (probability of class match) |
| --- | --- | --- | --- | --- | --- | --- | --- | --- | --- | --- |
| CCNCC1OCCn2nc3ccccc3c21.Cl (stereo not drawn) [Compound 18, N-((3,4-dihydro-1H-[1,4]oxazino[4,3-b]indazol-1-yl)methyl) ethanamine hydrogen chloride salt] | + (LOQ≦ + <5%) | ++ (5%≦ ++ <25%) | ++ (5%≦ ++ <25%) | ++ (5%≦ ++ <25%) | + (LOQ≦ + <5%) | + (LOQ≦ + <5%) | + (LOQ≦ + <5%) | ++ (5%≦ ++ <25%) | + (LOQ≦ + <5%) | + (LOQ≦ + <5%) |
| Cl.c1ccc2c3n(nc2c1)CCOC31CN2CCC1C2 (stereo not drawn) [Compound 37, 3′,4′-dihydro-4-azaspiro[bicyclo[2.2.1]heptane-2,1′-[1,4]oxazino[4,3-b]indazol]-4-ium chloride] | + (LOQ≦ + <5%) | ++ (5%≦ ++ <25%) | ++ (5%≦ ++ <25%) | ++ (5%≦ ++ <25%) | ++ (5%≦ ++ <25%) | + (LOQ≦ + <5%) | + (LOQ≦ + <5%) | ++ (5%≦ ++ <25%) | ++ (5%≦ ++ <25%) | +++ (25%≦ +++ <50%) |
| C[C@@H](N)[C@H]1OCCn2nc3ccccc3c21.Cl (relative stereo) [Compound 30, (+/−)-rel-(R)-1-((R)-3,4-dihydro-1H-[1,4]oxazino[4,3-b]indazol-1-yl) ethanaminium chloride] | ++ (5%≦ ++ <25%) | ++ (5%≦ ++ <25%) | +++ (25%≦ +++ <50%) | + (LOQ≦ + <5%) | ++ (5%≦ ++ <25%) | ++ (5%≦ ++ <25%) | + (LOQ≦ + <5%) | + (LOQ≦ + <5%) | + (LOQ≦ + <5%) | + (LOQ≦ + <5%) |

Same assay, conditions: i.p. 15 min before behavioral test; 3 doses, most efficacious dose(s) presented

| SMILES | XG: anxiogenic (probability of class match) |
| --- | --- |
| CCNCC1OCCn2nc3ccccc3c21.Cl (stereo not drawn) [Compound 18, N-((3,4-dihydro-1H-[1,4]oxazino[4,3-b]indazol-1-yl)methyl) ethanamine hydrogen chloride salt] | + (LOQ≦ + <5%) |
| Cl.c1ccc2c3n(nc2c1)CCOC31CN2CCC1C2 (stereo not drawn) [Compound 37, 3′,4′-dihydro-4-azaspiro[bicyclo[2.2.1]heptane-2,1′-[1,4]oxazino[4,3-b]indazol]-4-ium chloride] | + (LOQ≦ + <5%) |
| C[C@@H](N)[C@H]1OCCn2nc3ccccc3c21.Cl (relative stereo) [Compound 30, (+/−)-rel-(R)-1-((R)-3,4-dihydro-1H-[1,4]oxazino[4,3-b]indazol-1-yl) ethanaminium chloride] | + (LOQ≦ + <5%) |
